Results on eight compounds are retold here after patent US11116710B2, “Antimicrobial compositions” (SYMRISE AG, priority 2016, dated 2021).

Each structure is given as a SMILES string. In brackets after ≈: the same amount, converted by molar mass.

The test system of one experiment is Escherichia coli. The experiment can be described thus: Minimum inhibitory concentration (MIC) according to DIN 58940. In kind it is cell-based. Particulars: for MIC: Escherichia coli, read-out: MIC values (ppm) Escherichia coli. How it is done: (§1) The invention will be further described in the following on the basis of examples. The examples serve to illustrate the invention, without thereby restricting the scope of protection of the claims. For examples, 1 to 11 preservative challenge tests according to European Pharmacopoeia 7.0 (5.1.3. Efficacy of antimicrobial preservation) were used. For example 12, activities were determined by measuring minimum inhibitory concentrations (MIC values) according to DIN 58940. All numerical information relates to weight, unless stated otherwise.
(§2) The activity of Benzoic acid-3-hydroxypropylester (BAHP), Furoic acid-3-hydroxypropylester (FAHP) and Anisic acid-3-hydroxypropylester (AAHP), Salicylic acid hydroxyethyl ester (SAHE) and Salicylic acid hydroxypropyl ester (SAHP) was determined against the microorganisms Staphylococcus aureus, Candida albicans, Aspergillus brasiliensis, Pseudomonas aeruginosa and Escherichia coli. The activity of N-Methylsalicylamid (MSA), Furoic acid methylester (FAME) and Salicylamide (SA) was determined against the microorganism Aspergillus brasiliensis.

A further experiment relates to Pseudomonas aeruginosa. The description is as above. In kind it is cell-based. Particulars: for MIC: Pseudomonas aeruginosa, read-out: MIC values (ppm) Pseudomonas aeruginosa. How it is done: as §1, §2
Another experiment deals with Candida albicans. The experiment is described as above. In kind it is cell-based. Particulars: for MIC: Candida albicans, read-out: MIC values (ppm) Candida aibicans. The method, then:
as §1, §2

Another experiment has as its system Staphylococcus aureus. The description is as above. In kind it is cell-based. Particulars: for MIC: Staphylococcus aureus, read-out: MIC values (ppm) Staphylococcus aureus. The method, then:
as §1, §2

A further experiment concerns Aspergillus brasiliensis. The experiment is described as above. Particulars: for MIC: Aspergillus brasiliensis, read-out: MIC values (ppm) Aspergillus brasiliensis. In kind it is cell-based. The method, then:
as §1, §2

The next experiment concerns E. coli. The experiment can be described thus: Preservative challenge test (European Pharmacopoeia 7.0, 5.1.3) in anionic emulsion with Dracorin CE. In kind it is cell-based, Escherichia coli. Particulars: pH 5.5. How it is done: as §1
(§3) Activity of Benzoic acid-3-hydroxypropylester (BAHP) against the microorganisms E. coli, P. aeruginosa, S. aureus, C. albicans and spores of A. brasiliensis was evaluated in an anionic emulsion with Dracorin CE as emulsifier. The pH value of the emulsion was 5.5.
(§4) Activity of Furoic acid-3-hydroxypropylester (FAHP) against the microorganisms E. coli, P. aeruginosa, S. aureus, C. albicans and spores of A. brasiliensis was evaluated in an anionic emulsion with Dracorin CE as emulsifier. The pH value of the emulsion was 5.5.
(§5) Activity of Anisic acid-3-hydroxypropylester (AAHP) against the microorganisms E. coli, P. aeruginosa, S. aureus, C. albicans and spores of A. brasiliensis was evaluated in an anionic emulsion with Dracorin CE as emulsifier. The pH value of the emulsion was 5.5.
(§6) Synergistic effects between Benzoic acid-3-hydroxypropylester (BAHP) and 1,2-Octanediol were determined. Activity of BAHP, 1,2-Octanediol and the combination of BAHP and 1,2-Octanediol against the microorganisms E. coli, P. aeruginosa, S. aureus, C. albicans and spores of A. brasiliensis was evaluated in an anionic emulsion with Dracorin CE as emulsifier. The pH value of the emulsion was 5.5.

Another experiment has as its system C. albicans. The description is as above. In kind it is cell-based, Candida albicans. Particulars: pH 5.5. The method, then: as §1, §3, §4, §5, §6
The subject of experiment [1] is spores of A. brasiliensis. The description is as above. In kind it is cell-based, Aspergillus brasiliensis. How it is done: as §1, §3, §4, §5
Activity of N-Methylsalicylamid (MSA) against the microorganism A. brasiliensis was evaluated in an anionic emulsion with Dracorin CE as emulsifier. The pH value of the emulsion was 5.5.
Activity of Furoic acid methylester (FAME) against the microorganism A. brasiliensis was evaluated in an anionic emulsion with Dracorin CE as emulsifier. The pH value of the emulsion was 5.5.
Activity of Salicylamide (SA) against the microorganism A. brasiliensis was evaluated in an anionic emulsion with Dracorin CE as emulsifier. The pH value of the emulsion was 5.5.
Activity of Salicylic acid hydroxyethyl ester (SAHE) against the microorganism A. brasiliensis was evaluated in an anionic emulsion with Dracorin CE as emulsifier. The pH value of the emulsion was 5.5.
Activity of Salicylic acid hydroxypropyl ester (SAHP) against the microorganism A. brasiliensis was evaluated in an anionic emulsion with Dracorin CE as emulsifier. The pH value of the emulsion was 5.5.
Activity of Benzoic acid-3-hydroxypropylester (BAHP) against spores of A. brasiliensis was evaluated in an anionic emulsion with Dracorin CE as emulsifier. The pH value of the emulsion was 7.
Activity of Anisic acid-3-hydroxypropylester (AAHP) against spores of A. brasiliensis was evaluated in an anionic emulsion with Dracorin CE as emulsifier. The pH value of the emulsion was 7. […]

Another experiment relates to P. aeruginosa. The experiment is described as above. In kind it is cell-based, Pseudomonas aeruginosa. Particulars: pH 5.5. The method, then:
as §1, §3, §4, §5, §6

The test system of another experiment is S. aureus. The experiment is described as above. In kind it is cell-based, Staphylococcus aureus. Particulars: pH 5.5. The method, then:
as §1, §3, §4, §5, §6

[2] abbreviates: day 2, 0.75% in anionic emulsion.
Where [3] appears, read: day 2, 1.0% in anionic emulsion.
Where [4] appears, read: day 7, 0.75% in anionic emulsion.
Where [5] appears, read: day 7, 1.0% in anionic emulsion.
Where [6] appears, read: day 14, 0.75% in anionic emulsion.
Setting [7] is: day 14, 1.0% in anionic emulsion.
The mark [8] stands for this setting: day 28, 0.75% in anionic emulsion.
Setting [9] is: day 28, 1.0% in anionic emulsion.
[10] abbreviates: day 14, 1.0% in anionic emulsion, pH 5.5.
Setting [11] is: day 28, 1.0% in anionic emulsion, pH 5.5.

Usually MIC stands for the smallest concentration in the dilution series that meets the test's criterion for growth inhibition. With `O=C(OCCCO)c1ccccc1` [BAHP, Benzoic acid-3-hydroxypropylester], the minimum inhibitory concentration (MIC) is 2000 µg/mL (≈ 11.1 mM) in the experiment with Escherichia coli; more than 5000 µg/mL in the experiment on Pseudomonas aeruginosa; 2500 µg/mL (≈ 13.9 mM) in the experiment on Candida albicans; 5000 µg/mL (≈ 27.7 mM) in the experiment with Staphylococcus aureus; 2500 µg/mL (≈ 13.9 mM) with Aspergillus brasiliensis. Moreover, the “Colony counts (cfu/g formulation)” value in the experiment on E. coli (setting [2]), in the experiment on E. coli (setting [3]), in the experiment with E. coli (setting [4]), with E. coli (setting [5]), in the experiment on E. coli (setting [6]) and with E. coli (setting [7]) was less than 10 cfu/g formulation in each case. Also, the “Colony counts (cfu/g formulation)” value with E. coli (setting [8]), in the experiment on E. coli (setting [9]), with C. albicans (setting [4]), in the experiment with C. albicans (setting [5]), in the experiment on C. albicans (setting [6]) and in the experiment on C. albicans (setting [7]) was less than 10 cfu/g formulation throughout. The “Colony counts (cfu/g formulation)” value was less than 10 cfu/g formulation in the experiment with C. albicans (setting [8]); less than 10 cfu/g formulation in the experiment on C. albicans (setting [9]); less than 10 cfu/g formulation in experiment [1] (setting [10]); less than 10 cfu/g formulation in experiment [1] (day 14, 1.0% in anionic emulsion, pH 7); less than 10 cfu/g formulation in experiment [1] (setting [11]); less than 10 cfu/g formulation in experiment [1] (day 28, 1.0% in anionic emulsion, pH 7). Besides, the “Colony counts (cfu/g formulation)” value with P. aeruginosa (setting [2]), in the experiment with P. aeruginosa (setting [3]), with P. aeruginosa (setting [4]), with P. aeruginosa (setting [5]), in the experiment on P. aeruginosa (setting [6]) and in the experiment on P. aeruginosa (setting [7]) was less than 10 cfu/g formulation throughout. Further, the “Colony counts (cfu/g formulation)” value in the experiment on P. aeruginosa (setting [8]), with P. aeruginosa (setting [9]), in the experiment on S. aureus (setting [3]), with S. aureus (setting [4]), in the experiment on S. aureus (setting [5]) and in the experiment with S. aureus (setting [6]) was less than 10 cfu/g formulation each time. Further, the “Colony counts (cfu/g formulation)” value in the experiment on S. aureus (setting [7]), with S. aureus (setting [8]) and in the experiment with S. aureus (setting [9]) was less than 10 cfu/g formulation throughout.
On to `O=C(OCCCO)c1ccccc1O` [SAHP, Salicylic acid hydroxypropyl ester], for which the minimum inhibitory concentration (MIC) with Escherichia coli was 2500 µg/mL (≈ 12.7 mM); with Pseudomonas aeruginosa, more than 1000 µg/mL; in the experiment on Candida albicans, 2500 µg/mL (≈ 12.7 mM); in the experiment on Staphylococcus aureus, 1000 µg/mL (≈ 5.1 mM); in the experiment with Aspergillus brasiliensis, 1000 µg/mL (≈ 5.1 mM).
As to `O=C(OCCO)c1ccccc1O` [SAHE, Salicylic acid hydroxyethyl ester], the MIC is 2000 µg/mL (≈ 11 mM) in the experiment on Escherichia coli; more than 1000 µg/mL in the experiment with Pseudomonas aeruginosa; 2500 µg/mL (≈ 13.7 mM) with Candida albicans; more than 1000 µg/mL in the experiment with Staphylococcus aureus; 2500 µg/mL (≈ 13.7 mM) in the experiment with Aspergillus brasiliensis.
On to `CNC(=O)c1ccccc1O` [MSA, N-Methylsalicylamid], for which the minimal inhibitory concentration (MIC) with Aspergillus brasiliensis was determined as 1000 µg/mL (≈ 6.62 mM). For the same compound, the “Colony counts (cfu/g formulation)” value in [1] (day 7, 1.0% in anionic emulsion, pH 5.5) is reported as less than 10 cfu/g formulation; in experiment [1] (setting [10]), less than 10 cfu/g formulation; in experiment [1] (setting [11]), less than 10 cfu/g formulation.
Turning to `COC(=O)c1ccco1` [FAME, Furoic acid methylester], the MIC with Aspergillus brasiliensis is more than 1000 µg/mL. Besides, the “Colony counts (cfu/g formulation)” value in experiment [1] (setting [11]) is given as less than 10 cfu/g formulation.
As for `CCCCCCC(O)CO` (stereo not shown) [1,2-Octanediol, reference compound], the “Colony counts (cfu/g formulation)” value with E. coli (setting [2]), in the experiment with E. coli (setting [4]), in the experiment on E. coli (setting [6]), in the experiment on E. coli (setting [8]), in the experiment with C. albicans (setting [4]) and in the experiment with C. albicans (setting [6]) was less than 10 cfu/g formulation in each case. Also, the “Colony counts (cfu/g formulation)” value in the experiment with C. albicans (setting [8]), in the experiment with P. aeruginosa (setting [2]), with P. aeruginosa (setting [4]), in the experiment on P. aeruginosa (setting [6]), with P. aeruginosa (setting [8]) and with S. aureus (setting [2]) was less than 10 cfu/g formulation in each case. The “Colony counts (cfu/g formulation)” value with S. aureus (setting [4]), in the experiment on S. aureus (setting [6]) and with S. aureus (setting [8]) was less than 10 cfu/g formulation each time.
As for `NC(=O)c1ccccc1O` [SA, Salicylamide], the MIC with Aspergillus brasiliensis was determined as 2500 µg/mL (≈ 18.2 mM). In addition, the “Colony counts (cfu/g formulation)” value is on record as 2.0E+03 cfu/g formulation in [1] (setting [10]) and less than 10 cfu/g formulation in [1] (setting [11]).
Take `O=C(OCCCO)c1ccco1` [FAHP, Furoic acid-3-hydroxypropylester]: in the experiment with Escherichia coli, the “MIC values (ppm) Escherichia coli” value is more than 5000 ppm. Besides, in the experiment with Pseudomonas aeruginosa, the “MIC values (ppm) Pseudomonas aeruginosa” value was more than 5000 ppm. The “MIC values (ppm) Candida aibicans” value in the experiment on Candida albicans (DIN 58940) was more than 5000 ppm. The “MIC values (ppm) Staphylococcus aureus” value with Staphylococcus aureus is more than 5000 ppm. Besides, the “MIC values (ppm) Aspergillus brasiliensis” value against Aspergillus brasiliensis stood at 5000 ppm. In addition, the “Colony counts (cfu/g formulation)” value with E. coli (setting [3]), with E. coli (setting [5]), in the experiment on E. coli (setting [7]), in the experiment on E. coli (setting [9]), in the experiment with C. albicans (setting [7]) and in the experiment with C. albicans (setting [9]) was less than 10 cfu/g formulation each time. Further, the “Colony counts (cfu/g formulation)” value in the experiment on P. aeruginosa (setting [3]), with P. aeruginosa (setting [5]), in the experiment on P. aeruginosa (setting [7]), in the experiment on P. aeruginosa (setting [9]), with S. aureus (setting [3]) and in the experiment with S. aureus (setting [5]) was less than 10 cfu/g formulation in each case. Moreover, the “Colony counts (cfu/g formulation)” value in the experiment with S. aureus (setting [7]) and in the experiment on S. aureus (setting [9]) was less than 10 cfu/g formulation throughout.
